Experimental data taken from patent US5061794A, “Cephalosporin derivatives, and antibacterial agents” (priority 1986, dated 1991).
Counter-ions that a name gives are not always drawn. Like-named read-outs stand apart in the source and are kept apart here.

Assays:
Ps. aeruginosa IF03445 = experiment: in vitro antibacterial activity, agar plate dilution method (MIC); format: cell-based, Pseudomonas aeruginosa; conditions: Pseudomonas aeruginosa, 16 h; Ps. aeruginosa IF03445; 10^6 CFU/ml; read-out: Minimum Inhibitory Concentration (MIC)
Procedure, shortened: (§1)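 Agar plate dilution on Mueller Hinton agar containing graded compound levels, inoculated at 10^6 CFU/ml from overnight Mueller Hinton broth cultures. MIC (μg/ml) read after 16 h at 37°C.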

Ps. aeruginosa AK 109 = experiment: as above; format: cell-based, Pseudomonas aeruginosa; conditions: Pseudomonas aeruginosa, AK109, 16 h, Ps. aeruginosa AK 109; 10^6 CFU/ml; read-out: Minimum Inhibitory Concentration (MIC)
Procedure, shortened: as §1

Ps. aeruginosa AKR17 = experiment: as above; format: cell-based, Pseudomonas aeruginosa; conditions: Pseudomonas aeruginosa, 16 h; Ps. aeruginosa AKR17; 10^6 CFU/ml; read-out: Minimum Inhibitory Concentration (MIC)
Procedure, shortened: as §1

P. vulgaris HX-19 = experiment: as above; format: cell-based; conditions: Proteus vulgaris, HX19, 16 h, P. vulgaris HX-19; 10^6 CFU/ml; read-out: Minimum Inhibitory Concentration (MIC)
Procedure, shortened: as §1

S. marcescens IAM 1184 = experiment: as above; format: cell-based; conditions: Serratia marcescens, IAM1184, 16 h, read-out: Minimum Inhibitory Concentration (MIC)
Procedure, shortened: as §1

K. pneumoniae PCI-602 = experiment: as above; format: cell-based; conditions: Klebsiella pneumoniae, PCI602, 16 h, 10^6 CFU/ml
Procedure, shortened: as §1

K. pneumoniae No. 42 = experiment: as above; format: cell-based; conditions: Klebsiella pneumoniae, 10^6 CFU/ml
Procedure, shortened: as §1

M. morganii GN5407 = experiment: as above; format: cell-based; conditions: Morganella morganii, 10^6 CFU/ml
Procedure, shortened: as §1

E. cloacae Nek 39 = experiment: as above; format: cell-based; conditions: Enterobacter cloacae, NEK39, 16 h; *E. cloacae Nek 39, lactamase-producing strain; 10^6 CFU/ml; read-out: Minimum Inhibitory Concentration (MIC)
Procedure, shortened: as §1

E. coli GN5482 = experiment: as above; format: cell-based; conditions: Escherichia coli, read-out: Minimum Inhibitory Concentration (MIC)
Procedure, shortened: as §1

S. aureus 209P NIHJ-JC1 = experiment: as above; format: cell-based; conditions: Staphylococcus aureus, 16 h
Procedure, shortened: as §1

K. oxytoca GN10650 = experiment: as above; format: cell-based; conditions: Klebsiella oxytoca, 10^6 CFU/ml
Procedure, shortened: as §1

S. marcescens No. 16-2 = experiment: as above; format: cell-based; conditions: Serratia marcescens, NO.162, 16 h
Procedure, shortened: as §1

E. coli NIHJ JC2 = experiment: as above; format: cell-based; conditions: Escherichia coli
Procedure, shortened: as §1

P. vulgaris No. 33 = experiment: as above; format: cell-based; conditions: Proteus vulgaris, 10^6 CFU/ml
Procedure, shortened: as §1

E. cloacae 963 = experiment: as above; format: cell-based; conditions: 10^6 CFU/ml
Procedure, shortened: as §1

A. calcoaceticus No. 4 = experiment: as above; format: cell-based, Acinetobacter calcoaceticus; conditions: Acinetobacter calcoaceticus, NO.4, 16 h, 10^6 CFU/ml
Procedure, shortened: as §1

E. coli CSH2 (RK1) = experiment: microbe, parasite or virus in culture; format: cell-based; conditions: Escherichia coli, 16 h, read-out: Minimum Inhibitory Concentration (MIC), *E. coli CSH2 (RK1), lactamase-producing strain; 10^6 CFU/ml
Procedure, shortened: as §1

E. coli CSH(RE45) = experiment: microbe, parasite or virus in culture; format: cell-based; conditions: Escherichia coli, 16 h, read-out: Minimum Inhibitory Concentration (MIC), *E. coli CSH(RE45), lactamase-producing strain; 10^6 CFU/ml
Procedure, shortened: as §1

Ps. cepacia 23 = experiment: in vitro antibacterial activity, agar plate dilution method (MIC); format: cell-based, Pseudomonas cepacia; conditions: read-out: Minimum Inhibitory Concentration (MIC)
Procedure, shortened: as §1

[1] = S. marcescens IAM 1184, 10^6 CFU/ml
[2] = K. pneumoniae PCI-602, read-out: Minimum Inhibitory Concentration (MIC)
[3] = 16 h, *K. pneumoniae No. 42, lactamase-producing strain, read-out: Minimum Inhibitory Concentration (MIC)
[4] = 16 h, *M. morganii GN5407, lactamase-producing strain, read-out: Minimum Inhibitory Concentration (MIC)
[5] = S. aureus 209P NIHJ-JC1, 10^6 CFU/ml, 37° C., 16 hours, read-out: Minimum Inhibitory Concentration (MIC)
[6] = 16 h, *K. oxytoca GN10650, lactamase-producing strain, read-out: Minimum Inhibitory Concentration (MIC)
[7] = *S. marcescens No. 16-2, lactamase-producing strain, 10^6 CFU/ml, read-out: Minimum Inhibitory Concentration (MIC)
[8] = NIHJJC2, E. coli NIHJ JC2, 10^6 CFU/ml, 37° C., 16 hours, read-out: Minimum Inhibitory Concentration (MIC)
[9] = 16 h, *P. vulgaris No. 33, lactamase-producing strain, read-out: Minimum Inhibitory Concentration (MIC)
[10] = Enterobacter cloacae, 16 h, E. cloacae 963, read-out: Minimum Inhibitory Concentration (MIC)
[11] = A. calcoaceticus No. 4, read-out: Minimum Inhibitory Concentration (MIC)
[12] = Burkholderia cepacia, 16 h, Ps. cepacia 23, 10^6 CFU/ml
[13] = read-out: Minimum Inhibitory Concentration (MIC), K. pneumoniae PCI-602
[14] = read-out: Minimum Inhibitory Concentration (MIC)
[15] = NIHJJC2, 16 h, read-out: Minimum Inhibitory Concentration (MIC), E. coli NIHJ JC2, 10^6 CFU/ml, 37° C.
[16] = GN5407, 16 h, read-out: Minimum Inhibitory Concentration (MIC), *M. morganii GN5407, lactamase-producing strain

Row | Compound | MIC (Ps. aeruginosa IF03445) | MIC (Ps. aeruginosa AK 109) | MIC (Ps. aeruginosa AKR17) | MIC (P. vulgaris HX-19) | MIC (S. marcescens IAM 1184; [1]) | MIC (K. pneumoniae PCI-602; [2]) | MIC (K. pneumoniae No. 42; [3]) | MIC (M. morganii GN5407; [4]) | MIC (E. cloacae Nek 39) | MIC (S. aureus 209P NIHJ-JC1; [5]) | MIC (K. oxytoca GN10650; [6]) | MIC (S. marcescens No. 16-2; [7]) | MIC (E. coli NIHJ JC2; [8]) | MIC (P. vulgaris No. 33; [9]) | MIC (E. cloacae 963; [10]) | MIC (A. calcoaceticus No. 4; [11]) | MIC (E. coli CSH2 (RK1)) | MIC (E. coli CSH(RE45)) | MIC (Ps. cepacia 23; [12]) | MIC (E. coli GN5482; GN5482, 16 h) | further results
1 | CO/N=C(\C(=O)N[C@@H]1C(=O)N2C(C(=O)O)=C(CSc3nnc(-c4ccccc4)s3)CS[C@H]12)c1csc(N)n1 [compound 5, 7β-[2-(2-aminothiazol-4-yl)-2-methoxyiminoacetamido]-3-(5-phenyl-1,3,4-thiadiazol-2-yl) thiomethyl-3-cephem-4-carboxylic acid trifluoroacetate, reference compound] | 50 mg/L | 50 mg/L | > 100 mg/L | 0.0125 mg/L | 0.78 mg/L | 0.0125 mg/L | 0.78 mg/L | 0.78 mg/L | 3.12 mg/L | 0.39 mg/L | 6.25 mg/L | 3.12 mg/L | 0.39 mg/L | 0.39 mg/L | 0.78 mg/L | 3.12 mg/L | 0.2 mg/L | 0.2 mg/L | 3.12 mg/L |  | MIC (E. coli GN5482; 16 h, *E. coli GN5482, lactamase-producing strain, 10^6 CFU/ml): 0.39 mg/L
2 | CC(C)(O/N=C(\C(=O)N[C@@H]1C(=O)N2C(C(=O)O)=C(CSc3nnc(-c4ccccc4)s3)CS[C@H]12)c1csc(N)n1)C(=O)O [compound 6, disodium 7β-[2-(2-aminothiazol-4-yl)-(1-carboxylate-1-methylethoxyimino)acetamido]-3-(5-phenyl-1,3,4-thiadiazol-2-yl) thiomethyl-3-cephem-4carboxylate, reference compound] | 50 mg/L | 100 mg/L | > 100 mg/L | < 0.006 mg/L | 1.56 mg/L |  | 6.25 mg/L | 6.25 mg/L | 50 mg/L |  | 6.25 mg/L |  |  | 0.39 mg/L | 6.25 mg/L | 6.25 mg/L | 3.12 mg/L | 3.12 mg/L |  | 3.12 mg/L | MIC (K. pneumoniae PCI-602; [13]): 0.1 mg/L; MIC (S. aureus 209P NIHJ-JC1; [14]): 3.12 mg/L; MIC (S. marcescens No. 16-2; [14]): 12.5 mg/L; MIC (E. coli NIHJ JC2; [15]): 3.12 mg/L; MIC (Ps. cepacia 23; Burkholderia cepacia, 23, 16 h): 12.5 mg/L
3 | CO/N=C(\C(=O)N[C@@H]1C(=O)N2C(C(=O)O)=C(CSc3nnc(-c4ccc(O)cc4)s3)CS[C@H]12)c1csc(N)n1 [compound 7, 7β-[2-(2-aminothiazol-4-yl)-2methoxyiminoacetamido]-3-[5-(4-hydroxyphenyl-1,3,4-thiadiazol-2-yl)thiomethyl-3-cephem-4-carboxylic acid trifluoroacetate, reference compound] | 25 mg/L | 25 mg/L | > 100 mg/L | < 0.006 mg/L | 0.39 mg/L | < 0.006 mg/L | 1.56 mg/L |  | 3.12 mg/L | 0.39 mg/L | 3.12 mg/L | 3.12 mg/L | 0.39 mg/L | 1.56 mg/L | 1.56 mg/L | 1.56 mg/L | 0.2 mg/L | 0.2 mg/L | 3.12 mg/L | 0.78 mg/L | MIC (M. morganii GN5407; [16]): 0.78 mg/L
4 | CC(C)(O/N=C(\C(=O)N[C@@H]1C(=O)N2C(C(=O)O)=C(CSc3nnc(-c4ccc(O)cc4)s3)CS[C@H]12)c1csc(N)n1)C(=O)O [compound 8, disodium 7β-[2-(2-aminothiazol-4-yl)-2-(1-carboxylate-1-methylethoxyimino)acetamido]-3-[5-(4-hydroxyphenyl)-1,3,4-thiadiazol-2-yl)thiomethyl-3-cephem-4-carboxylate, reference compound] | 25 mg/L | 25 mg/L | > 100 mg/L | < 0.006 mg/L |  |  |  |  | 25 mg/L |  |  |  |  |  |  |  | 0.78 mg/L | 0.78 mg/L |  | 3.12 mg/L | MIC (S. marcescens IAM 1184): 0.78 mg/L; MIC (K. pneumoniae PCI-602; [13]): 0.1 mg/L; MIC (K. pneumoniae No. 42; NO.42, 16 h, read-out: Minimum Inhibitory Concentration (MIC), *K. pneumoniae No. 42, lactamase-producing strain): 3.12 mg/L; MIC (M. morganii GN5407; [16]): 1.56 mg/L; MIC (S. aureus 209P NIHJ-JC1; read-out: Minimum Inhibitory Concentration (MIC), S. aureus 209P NIHJ-JC1, 10^6 CFU/ml, 37° C., 16 hours): 6.25 mg/L; MIC (K. oxytoca GN10650; GN10650, 16 h, read-out: Minimum Inhibitory Concentration (MIC), *K. oxytoca GN10650, lactamase-producing strain): 6.25 mg/L; MIC (S. marcescens No. 16-2; read-out: Minimum Inhibitory Concentration (MIC), *S. marcescens No. 16-2, lactamase-producing strain, 10^6 CFU/ml): 6.25 mg/L; MIC (E. coli NIHJ JC2; [15]): 3.12 mg/L; MIC (P. vulgaris No. 33; NO.33, 16 h, read-out: Minimum Inhibitory Concentration (MIC), *P. vulgaris No. 33, lactamase-producing strain): 0.2 mg/L; MIC (E. cloacae 963; Enterobacter cloacae, 963, 16 h, read-out: Minimum Inhibitory Concentration (MIC), E. cloacae 963): 6.25 mg/L; MIC (A. calcoaceticus No. 4; read-out: Minimum Inhibitory Concentration (MIC), A. calcoaceticus No. 4): 3.12 mg/L; MIC (Ps. cepacia 23; Burkholderia cepacia, 23, 16 h): 6.25 mg/L
